Measurements taken from patent US4595530A, “Thiodeazapurine derivatives” (Takeda Chemical Industries, Ltd., priority 1983, dated 1986).
Values after ≈ are worked out from the molar mass of the structure shown.

Legend:
[1] = system: rat liver tRNA-guanine transglycosylase; assay: uptake of compound into tRNA ([3H]-guanine labeled tRNA exchange); assay type: biochemical; details: 0.02 OD260 of compound, 37° C., 17 hours, 0.5 unit enzyme
Procedure: [^3 H]-Guanine labeled tRNA^(*^) (8000 cpm), 70 mM of tris hydrochloride, 60 mM of magnesium chloride, 0.5 unit of rat liver tRNA-guanine transglycosylase and 0.02 OD260 of the compound of Example 1 (which appears hereinafter) (100 μl) were incubated at 37° C. for 17 hours. The reaction mixture was applied to a Whatman 3 MM filter paper (Whatman Co., U.S.A.) and washed 3 times with a 5% aqueous solution of trichloroacetic acid and, then, once each with ethanol/ether (1:1) and ether alone. After drying, the uptake of the test compound was determined in a toluenic scintillation fluid.
^(*^) tRNA with the firstletter (base) of its anticodon labeled with [^3 H]guanine.
The uptake of the compound of Example 2 into tRNA was determined in the same manner as Experimental Example 1. The result was 57%.

[2] = system: Meth A tumor cells; assay: Meth A tumor growth inhibition in mice; assay type: in vivo; details: BALB/c mouse, s.c. transplant, 100 mg/kg i.p. once daily for 14 days from day 4, tumor weight on 35th day
Procedure: 5×10^4 Meth A tumor cells were subcutaneously transplanted into a BALB/c mouse weighing 20 g and starting on the 4th day after transplantation, a solution of the compound of Example 1 in 0.1 ml of distilled water was intraperitoneally injected into the mouse once daily in a dose of 100 mg/kg for 14 consecutive days. On the 35th day after transplantation, the tumor node was enucleated and weighed.

[3] = system: L5178Y mouse tumor cells; assay: growth inhibition of cultured L5178Y cells; assay type: cell-based; details: 72 hours incubation with drug, cell count vs non-treated control, read-out: IC50 (50% growth inhibitory concentration)
Procedure: 1×10^4 L5178Y mouse tumor cells were suspended in 2 ml of a RPMI-1640 medium containing 10% of bovine fetal serum, 20 μM of 2-mercaptoethanol and 100 μg/ml kanamycin (Nissui Pharmaceutical Co., Ltd. Japan), and incubated at 37° C. for 24 hours before addition of the drug. Using the above culture fluid as a diluent, the compound of Example 1 was diluted 1/4-fold in a series of 5 stages, the maximum concentration of the compound in the medium being 200 μg/ml. The dilutions were further incubated for 72 hours, at the end of which time the cells were counted and the IC50 (50% growth inhibitory concentration) was calculated with the count for the non-treated control group being taken as 100%.

Row | Structure (SMILES) | uptake of the test compound into tRNA (% of tRNA) [1] [%] | tumor growth inhibition rate [2] [%] | IC50 [3] [µg/mL]
1 | NCc1c[nH]c2nc(N)[nH]c(=S)c12 [Example 2, 2-amino-5-aminomethylpyrrolo[2,3-d]pyrimidine-4-thione] | 57 |  | 
2 | Nc1nc2[nH]cc(CN[C@H]3C=C[C@H](O)[C@@H]3O)c2c(=S)[nH]1 [Example 1, 2-amino-5-[(3S,4R,5S)-4,5-dihydroxycyclopent-1-en-3-ylaminomethy-]pyrrolo[2,3-d]pyrimidine-4-thione] | 81 | 71 | 22 (≈ 75 µM)
